Experimental data: patent US7671092B2, “Paclitaxel enhancer compounds” (Synta Pharmaceuticals Corp., priority 2001, dated 2010)
Values joined by “and” are separate entries in the source; they are usually repeats but may differ in a detail not shown here. Identical values can stand only once.

What was measured:
[1] = tested on: MDA-435 human breast tumor; assay: In vivo tumor growth inhibition assay, compound plus Paclitaxel given IV to tumor-bearing mice; parameters: species or system CD-1 nu/nu mice; settings: for % Tumor Growth: vehicle = 100
Protocol: A supplemented media was prepared from 50% DMEM/Dulbecco Modified Eagle Medium (High Glucose), 50% RPMI 1640, 10% FBS/Fetal Bovine Serum (Hybridoma Tested; Sterile Filtered), 1% L-Glutamine, 1% Penicillin-Streptomycin, 1% MEM Sodium Pyruvate and 1% MEM Non-Essential Amino Acids. FBS was obtained from Sigma Chemical Co. and other ingredients were obtained from Invitrogen Life Technologies, USA). The supplemental media was warmed to 37° C. and 50 ml of media was added to a 175 cm^2 tissue culture flask.
The cells used in the assay were MDA-435 Human Breast Carcinoma from the American Type Culture Collection. 1 vial of MDA-435 cells from the liquid nitrogen frozen cell stock was removed. The frozen vial of cells was immediately placed into a 37° C. water bath and gently swirled until thawed. The freeze-vial was wiped with 70% ethanol and cells were immediately pipetted into the 175 cm^2 tissue culture flask containing supplemented media. The cells were incubated overnight and the media was removed and replaced with fresh supplemented media the next day. The flask was incubated until flask became about 90% confluent. This took anywhere from 5-7 days.
The flask was washed with 10 ml of sterile room temperature phosphate buffered saline (PBS). The cells were trypsinized by adding 5 ml of warmed Trypsin-EDTA (Invitrogen) to the flask of cells. […] An equal volume of supplemented media (5 ml) was added to the flask. All the cells were collected into 50 ml tube, and centrifuged at 1000 RPM for 5 minutes at 20° C. The supernatant was aspirated and the cell pellet was resuspended in 10 ml of supplemented media and the cells were counted. 1-3 million cells/flask were seeded into 5-7 tissue culture flasks (175 cm^2). Each flask contained 50 ml of supplemented media. The flasks were incubated until about 90% confluent. The passaging of the cells was repeated until enough cells have been grown for tumor implantation.
The above procedure for trypsinizing and centrifuging the cells were followed. The supernatant was aspirated and the cell pellet was resuspended in 10 ml of sterile PBS and the cells were counted. The cells were centrifuged and then resuspended with appropriate volume of sterile PBS for injection of correct number of cells needed for tumor implantation. In the case of MDA-435, 100 million cells were suspended with 2.0 ml of sterile PBS to a final concentration of 50 million cells/ml in order to inject 5 million cells in 0.1 ml/mouse.
Mice (CD-1 nu/nu) were obtained from Charles River Laboratories: nomenclature: Crl:CD-1-nuBR, Age: 6-8 weeks. The mice were allowed to acclimate for 1 week prior to their being used in an experimental procedure.
Implantation of the MDA-435 tumor cell suspension took place into the corpus adiposum of the female CD-1 nu/nu mouse. […] Tumor cells were implanted subcutaneously into the fat body located in the right quadrant of the abdomen at the juncture of the os coxae (pelvic bone) and the os femoris (femur). 5 million MDA-435 cells in 0.1 ml of sterile PBS were injected using 27 G (½ inch) needle. MDA-435 tumors developed 2-3 weeks after implantation.
Compound stock solutions were prepared by dissolving the compound in cell-culture-grade DMSO (dimethyl sulfoxide) at the desired concentration. This stock solution in DMSO was sonicated in an ultrasonic water bath until all the powder dissolved.

[2] = assay type: in vivo; settings: mice treated with Paclitaxel and Compound (1); FIG. 2
Protocol: The in vivo anti-cancer enhancing effect of novel compounds was assessed in tumor bearing mice using the tumor growth inhibition assay. Tumor cells were implanted by injection of a tumor cell suspension subcutaneously in the flank of a mouse. […] Animal then begun a multiple injection schedule where the compound and Paclitaxel were given by IV route of administration. Tumors were measured two times a week. During the course of this assay, animals were monitored daily for signs of toxicity including body weight loss.

Which “% Tumor Growth” value ([1]; Example 13, Day 23, Group 2: Paclitaxel 2 mg/kg alone, IV, 3 times a week for 3 weeks) does the source give for `CC(=O)O[C@H]1C(=O)[C@@]2(C)[C@H]([C@H](OC(=O)c3ccccc3)[C@]3(O)C[C@H](OC(=O)[C@H](O)[C@@H](NC(=O)c4ccccc4)c4ccccc4)C(C)=C1C3(C)C)[C@]1(OC(C)=O)CO[C@@H]1C[C@@H]2O` [Paclitaxel] here?
Its value is 86%.

And the “% Tumor Growth” value ([1]; Example 13, Day 23, Group 3: Paclitaxel 5 mg/kg alone, IV, 3 times a week for 3 weeks)?
The value was 55%.

What about the “Average Tumor Volume (mm^3) on Day 23” value ([1]; Example 13, Group 2: Paclitaxel 2 mg/kg alone, IV, 3 times a week for 3 weeks) of the same molecule?
The value was 259.8 mm^3.

What about the “Average Tumor Volume (mm^3) on Day 23” value ([1]; Example 13, Group 3: Paclitaxel 5 mg/kg alone, IV, 3 times a week for 3 weeks) of the same molecule?
The value was 164.8 mm^3.

And the “Average Tumor Volume [mm^3]” value ([1]; Example 14, Day 48, Group 2: Paclitaxel 10 mg/kg alone, IV, 3 times a week for 3 weeks)?
The value was 105 mm^3 and 105.4 mm^3.

And the “% Tumor Growth Inhibition on Day 48” value ([1]; Example 14, Group 2: Paclitaxel 10 mg/kg alone, IV, 3 times a week for 3 weeks)?
Its value is 86%.

And the Anti-tumor activity ([1]; Example 14: Paclitaxel 10 mg/kg alone, IV, 3 times a week for 3 weeks)?
The Anti-tumor activity was “significant anti-tumor activity was observed”.

What about the “Average % Tumor Growth Inhibition on Day 27” value ([1]; Example 15, Group 2: Paclitaxel 5 mg/kg alone, IV, 3 times a week for 3 weeks) of the same molecule?
Its value is 19%.

For `CN(NC(=O)CC(=O)NN(C)C(=S)c1ccccc1)C(=S)c1ccccc1` [Compound (1), N-Malonyl-bis[N′-methyl-N′-(thiobenzoyl)hydrazide]], which “Weight loss over the treatment period” value [2] is on record?
Its value is “little if any weight loss”.

What about the “Enhancement of anti-tumor activity of Paclitaxel” value ([1]; Example 12, FIG. 1: Compound (1) 25 or 50 mg/kg + Paclitaxel 5 mg/kg, IV, 3 times a week for 3 weeks) of the same molecule?
The value was “significantly enhanced anti-tumor activity of Paclitaxel”.

What about the “% Tumor Growth” value ([1]; Example 13, Day 23, Groups 4-5: compound 80 mg/kg alone, IV, 3 times a week for 3 weeks) of the same molecule?
Its value is 90%.

And the “% Tumor Growth” value ([1]; Example 13, Day 23, Groups 6 and 8: compound 80 mg/kg + Paclitaxel 2 mg/kg, IV, 3 times a week for 3 weeks)?
The value was 64%.

And the “% Tumor Growth” value ([1]; Example 13, Day 23, Groups 7 and 9: compound 80 mg/kg + Paclitaxel 5 mg/kg, IV, 3 times a week for 3 weeks)?
Its value is 35%.

What about the “Average Tumor Volume (mm^3) on Day 23” value ([1]; Example 13, Groups 4-5: compound 80 mg/kg alone, IV, 3 times a week for 3 weeks) of the same molecule?
The value was 270.0 mm^3.

And the “Average Tumor Volume (mm^3) on Day 23” value ([1]; Example 13, Groups 6 and 8: compound 80 mg/kg + Paclitaxel 2 mg/kg, IV, 3 times a week for 3 weeks)?
The value was 193.3 mm^3.

What about the “Average Tumor Volume (mm^3) on Day 23” value ([1]; Example 13, Groups 7 and 9: compound 80 mg/kg + Paclitaxel 5 mg/kg, IV, 3 times a week for 3 weeks) of the same molecule?
Its value is 106.2 mm^3.

And the “Enhancement of anti-tumor activity of Paclitaxel” value ([1]; Example 13: compound 80 mg/kg + Paclitaxel at both 2 mg/kg and 5 mg/kg, IV, 3 times a week for 3 weeks)?
The value was “significantly enhanced anti-tumor activity of Paclitaxel”.

What about the “Average Tumor Volume [mm^3]” value ([1]; Example 14, Day 48, Group 3: Compound (1) 50 mg/kg alone, IV, 3 times a week for 3 weeks) of the same molecule?
Its value is 754.9 mm^3.

What about the “Average Tumor Volume [mm^3]” value ([1]; Example 14, Day 48, Group 4: Compound (1) 25 mg/kg + Paclitaxel 10 mg/kg, IV, 3 times a week for 3 weeks) of the same molecule?
The value was 0.59 mm^3.

And the “% Tumor Growth Inhibition on Day 48” value ([1]; Example 14, Group 3: Compound (1) 50 mg/kg alone, IV, 3 times a week for 3 weeks)?
Its value is 0%.

And the “Tumor volume, fold less than with Paclitaxel alone or Compound (1) alone” value ([1]; after 24 days of treatment, Paclitaxel 5 mg/kg + Compound (1) 25 mg/kg versus Paclitaxel 5 mg/kg only or Compound (1) 50 mg/kg only, FIG. 1)?
The value was “about five”.
